Results on 37 substances are retold here after patent US20120083522A1, “MODULATION OF INFLAMMATORY RESPONSES BY FACTOR XI” (Isis Pharmaceuitcals, inc., priority 2009, published 2012).

For the data set, the system named is human Factor XI mRNA. The experiment in a line: Antisense inhibition in HepG2 cells by microwalk gapmers, 75 nM, lipofectin (Example 3). It counts as cell-based. To be noted: HepG2 cells, 75 nM. On the procedure:
These gapmers were designed by creating gapmers shifted slightly upstream and downstream (i.e. “microwalk”) of the original gapmers from Table 3. Gapmers were also created with various motifs, e.g. 5-10-5 MOE, 3-14-3 MOE, and 2-13-5 MOE. These gapmers were tested in vitro. Cultured HepG2 cells at a density of 10,000 cells per well were transfected using lipofectin reagent with 75 nM antisense oligonucleotide. After a treatment period of approximately 24 hours, RNA was isolated from the cells and Factor XI mRNA levels were measured by quantitative real-time PCR. Factor XI mRNA levels were adjusted according to total RNA content, as measured by RIBOGREEN®. Results are presented as percent inhibition of Factor XI, relative to untreated control cells.
The chimeric antisense oligonucleotides in Table 4 were designed as 5-10-5 MOE, 3-14-3 MOE, and 2-13-5 MOE gapmers. The first listed gapmers in Table 4 are the original gapmers (see Table 3) from which the remaining gapmers were designed via microwalk and are designated by an asterisk. The 5-10-5 gapmers are 20 nucleotides in length, wherein the central gap segment is comprised of 10 2′-deoxynucleotides and is flanked on both sides (in the 5′ and 3′ directions) by wings comprising 5 nucleotides each. The 3-14-3 gapmers are 20 nucleotides in length, wherein the central gap segment is comprised of 14 2′-deoxynucleotides and is flanked on both sides (in the 5′ and 3′ directions) by wings comprising 3 nucleotides each. The 2-13-5 gapmers are 20 nucleotides in length, wherein the central gap segment is comprised of 13 2′-deoxynucleotides. The central gap is flanked on the 5′ end with a wing comprising 2 nucleotides and on the 3′ end with a wing comprising 5 nucleotides. For each of the motifs (5-10-5, 3-14-3, and 2-13-5), each nucleotide in the 5′ wing segment and each nucleotide in the 3′ wing segment has a 2′-MOE modification. The internucleoside linkages throughout each gapmer are phosphorothioate (P═S) linkages. All cytidine residues throughout each gapmer are 5-methylcytidines. “Target start site” indicates the 5′-most nucleotide to which the gapmer is targeted. “Target stop site” indicates the 3′-most nucleotide to which the gapmer is targeted. Each gapmer listed in Table 4 is targeted to SEQ ID NO: 1 (GENBANK Accession No. NM_000128.3).

Where [1] appears, read: oligonucleotides targeted to nucleobases 1275 to 1318 of SEQ ID NO: 1.
Where [2] appears, read: oligonucleotides targeted to nucleobases 738 to 762 of SEQ ID NO: 1.
Where [3] appears, read: oligonucleotides targeted to nucleobases 1018 to 1042 of SEQ ID NO: 1.
The mark [4] stands for this setting: oligonucleotides targeted to nucleobases 1062 to 1091 of SEQ ID NO: 1.

In the oligonucleotide strings, read from the 5' end, every base follows the letter of its sugar. An asterisk marks phosphorothioate; unmarked linkages are phosphodiester. Other units and linkages are bracketed, terminal groups are in braces. A string of capitals states the bases alone. e = 2'-O-(2-methoxyethyl) (MOE); [5mC] = 5-methylcytosine; d = 2'-deoxy (DNA)

“416933 (antisense eA*e[5mC]*eG*dG*d[5mC]*dA*dT*dT*dG*dG*dT*dG*d[5mC]*dA*d[5mC]*dA*dG*eT*eT*eT) [compound 416933]”: under setting [1], the “% inhibition of human Factor XI mRNA levels” value (“% inhibition” for short) is reported as 92%.
Still for that read-out and setting: for “416934 (antisense eG*eA*e[5mC]*dG*dG*d[5mC]*dA*dT*dT*dG*dG*dT*dG*d[5mC]*dA*d[5mC]*dA*eG*eT*eT) [compound 416934]” the value was 90%; for “416935 (antisense eG*eG*eA*d[5mC]*dG*dG*d[5mC]*dA*dT*dT*dG*dG*dT*dG*d[5mC]*dA*d[5mC]*eA*eG*eT) [compound 416935]”, 92%; for “416936 (antisense e[5mC]*eG*eG*dA*d[5mC]*dG*dG*d[5mC]*dA*dT*dT*dG*dG*dT*dG*d[5mC]*dA*e[5mC]*eA*eG) [compound 416936]”, 89%.
The same measure, in the same setting: the same measure for “416937 (antisense eG*e[5mC]*eG*dG*dA*d[5mC]*dG*dG*d[5mC]*dA*dT*dT*dG*dG*dT*dG*d[5mC]*eA*e[5mC]*eA) [compound 416937]”: 93%; for “416938 (antisense eA*eG*e[5mC]*dG*dG*dA*d[5mC]*dG*dG*d[5mC]*dA*dT*dT*dG*dG*dT*dG*e[5mC]*eA*e[5mC]) [compound 416938]”: 90%.
Same read-out and setting: for “416939 (antisense e[5mC]*eA*eG*d[5mC]*dG*dG*dA*d[5mC]*dG*dG*d[5mC]*dA*dT*dT*dG*dG*dT*eG*e[5mC]*eA) [compound 416939]” the value was 88%.
With “416940 (antisense eG*e[5mC]*eA*dG*d[5mC]*dG*dG*dA*d[5mC]*dG*dG*d[5mC]*dA*dT*dT*dG*dG*eT*eG*e[5mC]) [compound 416940]”, under setting [1], the “% inhibition” value came to 92%.
On the same count and under the same terms, for “416942 (antisense eT*eG*eG*d[5mC]*dA*dG*d[5mC]*dG*dG*dA*d[5mC]*dG*dG*d[5mC]*dA*dT*dT*eG*eG*eT) [compound 416942]” the value was 85%; for “416943 (antisense e[5mC]*eT*eG*dG*d[5mC]*dA*dG*d[5mC]*dG*dG*dA*d[5mC]*dG*dG*d[5mC]*dA*dT*eT*eG*eG) [compound 416943]”, 92%; for “416944 (antisense eA*e[5mC]*eT*dG*dG*d[5mC]*dA*dG*d[5mC]*dG*dG*dA*d[5mC]*dG*dG*d[5mC]*dA*eT*eT*eG) [compound 416944]”, 83%.
In the case of “416975 (antisense e[5mC]*e[5mC]*dG*dT*dG*d[5mC]*dA*dT*d[5mC]*dT*dT*dT*d[5mC]*dT*dT*eG*eG*e[5mC]*eA*eT) [compound 416975]”, the “% inhibition” value under setting [2] came out at 87%.
On the same count and under the same terms, for “416976 (antisense eT*e[5mC]*d[5mC]*dG*dT*dG*d[5mC]*dA*dT*d[5mC]*dT*dT*dT*d[5mC]*dT*eT*eG*eG*e[5mC]*eA) [compound 416976]” the value was 83%; for “416977 (antisense eA*eT*d[5mC]*d[5mC]*dG*dT*dG*d[5mC]*dA*dT*d[5mC]*dT*dT*dT*d[5mC]*eT*eT*eG*eG*e[5mC]) [compound 416977]”, 82%; for “416978 (antisense e[5mC]*eA*dT*d[5mC]*d[5mC]*dG*dT*dG*d[5mC]*dA*dT*d[5mC]*dT*dT*dT*e[5mC]*eT*eT*eG*eG) [compound 416978]”, 76%.
Still for that read-out and setting: for “416979 (antisense eT*e[5mC]*dA*dT*d[5mC]*d[5mC]*dG*dT*dG*d[5mC]*dA*dT*d[5mC]*dT*dT*eT*e[5mC]*eT*eT*eG) [compound 416979]” the value was 63%.
In the case of “416980 (antisense eG*eT*d[5mC]*dA*dT*d[5mC]*d[5mC]*dG*dT*dG*d[5mC]*dA*dT*d[5mC]*dT*eT*eT*e[5mC]*eT*eT) [compound 416980]”, under setting [2], the “% inhibition” value is 87%.
For “416981 (antisense e[5mC]*e[5mC]*dG*dG*dG*dA*dT*dG*dA*dT*dG*dA*dG*dT*dG*e[5mC]*eA*eG*eA*eT) [compound 416981]”, under setting [3], the “% inhibition” value is 87%.
Same read-out and setting: the same measure for “416982 (antisense eA*e[5mC]*d[5mC]*dG*dG*dG*dA*dT*dG*dA*dT*dG*dA*dG*dT*eG*e[5mC]*eA*eG*eA) [compound 416982]”: 84%; for “416983 (antisense eA*eA*d[5mC]*d[5mC]*dG*dG*dG*dA*dT*dG*dA*dT*dG*dA*dG*eT*eG*e[5mC]*eA*eG) [compound 416983]”: 86%.
Take “416986 (antisense eA*eT*dT*d[5mC]*dT*dT*dT*dG*dG*dG*d[5mC]*d[5mC]*dA*dT*dT*e[5mC]*e[5mC]*eT*eG*eG) [compound 416986]”: the “% inhibition” value under setting [4] is 88%.
For “416987 (antisense eG*eA*dT*dT*d[5mC]*dT*dT*dT*dG*dG*dG*d[5mC]*d[5mC]*dA*dT*eT*e[5mC]*e[5mC]*eT*eG) [compound 416987]”, the “% inhibition” value under setting [4] was determined as 80%.
Still for that read-out and setting: the same measure for “416988 (antisense eA*eG*dA*dT*dT*d[5mC]*dT*dT*dT*dG*dG*dG*d[5mC]*d[5mC]*dA*eT*eT*e[5mC]*e[5mC]*eT) [compound 416988]”: 76%; for “416990 (antisense eT*eG*dA*dG*dA*dT*dT*d[5mC]*dT*dT*dT*dG*dG*dG*d[5mC]*e[5mC]*eA*eT*eT*e[5mC]) [compound 416990]”: 76%; for “416991 (antisense eT*eT*dG*dA*dG*dA*dT*dT*d[5mC]*dT*dT*dT*dG*dG*dG*e[5mC]*e[5mC]*eA*eT*eT) [compound 416991]”: 87%.
“416992 (antisense eT*eT*dT*dG*dA*dG*dA*dT*dT*d[5mC]*dT*dT*dT*dG*dG*eG*e[5mC]*e[5mC]*eA*eT) [compound 416992]”: the “% inhibition” value under setting [4] came out at 84%.
Same read-out and setting: the same measure for “416994 (antisense eT*e[5mC]*dT*dT*dT*dG*dA*dG*dA*dT*dT*d[5mC]*dT*dT*dT*eG*eG*eG*e[5mC]*e[5mC]) [compound 416994]”: 83%; for “416995 (antisense eT*eT*d[5mC]*dT*dT*dT*dG*dA*dG*dA*dT*dT*d[5mC]*dT*dT*eT*eG*eG*eG*e[5mC]) [compound 416995]”: 64%; for “416996 (antisense eT*eT*dT*d[5mC]*dT*dT*dT*dG*dA*dG*dA*dT*dT*d[5mC]*dT*eT*eT*eG*eG*eG) [compound 416996]”: 22%.
For “416997 (antisense eA*e[5mC]*dA*dG*dT*dT*dT*d[5mC]*dT*dG*dG*d[5mC]*dA*dG*dG*e[5mC]*e[5mC]*eT*e[5mC]*eG) [compound 416997]”, the “% inhibition” value under setting [1] was found to be 84%.
Same read-out and setting: for “416998 (antisense e[5mC]*eA*d[5mC]*dA*dG*dT*dT*dT*d[5mC]*dT*dG*dG*d[5mC]*dA*dG*eG*e[5mC]*e[5mC]*eT*e[5mC]) [compound 416998]” the value was 88%.
Same read-out and setting: the same measure for “417001 (antisense eG*eT*dG*d[5mC]*dA*d[5mC]*dA*dG*dT*dT*dT*d[5mC]*dT*dG*dG*e[5mC]*eA*eG*eG*e[5mC]) [compound 417001]”: 83%.
On the same count and under the same terms, the same measure for “417004 (antisense eT*eT*dG*dG*dT*dG*d[5mC]*dA*d[5mC]*dA*dG*dT*dT*dT*d[5mC]*eT*eG*eG*e[5mC]*eA) [compound 417004]”: 86%.
As for “417005 (antisense eA*eT*dT*dG*dG*dT*dG*d[5mC]*dA*d[5mC]*dA*dG*dT*dT*dT*e[5mC]*eT*eG*eG*e[5mC]) [compound 417005]”, the “% inhibition” value under setting [1] turned out to be 79%.
Same read-out and setting: for “417006 (antisense e[5mC]*eA*dT*dT*dG*dG*dT*dG*d[5mC]*dA*d[5mC]*dA*dG*dT*dT*eT*e[5mC]*eT*eG*eG) [compound 417006]” the value was 81%; for “417007 (antisense eG*e[5mC]*dA*dT*dT*dG*dG*dT*dG*d[5mC]*dA*d[5mC]*dA*dG*dT*eT*eT*e[5mC]*eT*eG) [compound 417007]”, 82%; for “417008 (antisense eG*eG*d[5mC]*dA*dT*dT*dG*dG*dT*dG*d[5mC]*dA*d[5mC]*dA*dG*eT*eT*eT*e[5mC]*eT) [compound 417008]”, 82%.
